Laboratory results from US10961279B2 (priority 2011, dated 2021).

Tested on: CTLL-2 cells
Format: cell-based

## DRGWGNGCGDFGKG [FLV FUS non-IS]
  effect of the dimeric peptides on proliferation of CTLL-2 cells: non-immune suppressive

## DRGWGNGCGLFGKG [monomeric peptide]
  inhibition of proliferation of CTLL-2 cells: no effect

## GLFGAIAGFIENGWEGCGGEKEKEK [wt INF]
  effect of the dimeric peptides on proliferation of CTLL-2 cells (synthesis of new DNA): inhibits synthesis of new DNA

## PALSTGLIHLHQNIVDVQCGGEKEKEK
  inhibition of proliferation of T-cells: inhibits proliferation of T-cells in a concentration dependent manner
